Data reported in patent publication US20130178453A1, “Cannabinoid Agonists” (priority 2010, published 2013).
Where two headings read alike, the source gives them in different places.

What was measured:
[1] = target: T1, hCB2 (Homo sapiens, UniProt P34972); experiment: hCB2 GTPγS agonist assay (HEK-293 membranes); assay type: biochemical
Description: (§1) cDNA expression clones for human CB 1 (hCB1, Genbank Accession No. AY225225) and human CB2 (hCB2, Genbank Accession No. AY242132) expressed in vector pcDNA3.1+ were purchased from UMR cDNA Resource Center, Rolla, Mo. (Clone ID CNR01L000 for hCB1; CNR0200000 for hCB2).
(§2) Membranes were isolated from transfected cells as follows. Monolayers of cultured cells were washed twice with phosphate-buffered saline (PBS). […] Homogenates were centrifuged 10 minutes at 1000×g at 4° C. The supernatant was collected and was centrifuged for 1 hour at 40,000×g. The supernatant was then decanted and the resulting pellet was re-suspended in 20 mM HEPES, pH 7.4, 5 mM MgCl2, 1 mM EDTA, 10% sucrose with complete cocktail protease inhibitors. Protein concentration of membrane suspensions were measured by Bradford Protein Assay using bovine serum albumin as the standard (BioRad catalog #500-0006). Protein concentrations of membrane suspensions were adjusted with the final buffer in the range of 5 to 10 mg/mL and were stored at −80° C. until further use.
^35S GTPγS binding assays were performed by incubating recombinant cell membranes prepared above (5 μg) in the presence of scintillation proximity assay beads (SPA beads, Catalog #RPNQ0252 GE Healthcare, Buckinghamshire, England) in GTPγS binding buffer [50 mM HEPES (pH 7.4), 100 mM NaCl, 5 mM MgCl2, 0.001% saponin (Sigma catalog #S4521)] supplemented with 20 uM GDP (Sigma catalog #G7127) in the presence or absence of test compound. The reaction was carried out in 96-well microplates with 0.1 nM [^35S]GTPγS (specific activity=1250 Ci/mmol; Perkin Elmer catalog #NEG030X250UC) in a final volume of 100 μL. After a 90 min room temperature incubation, the reaction was analyzed using a scintillation counter (Perkin Elmer Microbeta instrument). Binding data were analyzed using GraphPad Prism.

[2] = target: T2, hCB1 (Homo sapiens, UniProt P21554); experiment: hCB1 cAMP agonist assay (HEK-293 cells); assay type: cell-based
T2 sequence (P21554 whole entry): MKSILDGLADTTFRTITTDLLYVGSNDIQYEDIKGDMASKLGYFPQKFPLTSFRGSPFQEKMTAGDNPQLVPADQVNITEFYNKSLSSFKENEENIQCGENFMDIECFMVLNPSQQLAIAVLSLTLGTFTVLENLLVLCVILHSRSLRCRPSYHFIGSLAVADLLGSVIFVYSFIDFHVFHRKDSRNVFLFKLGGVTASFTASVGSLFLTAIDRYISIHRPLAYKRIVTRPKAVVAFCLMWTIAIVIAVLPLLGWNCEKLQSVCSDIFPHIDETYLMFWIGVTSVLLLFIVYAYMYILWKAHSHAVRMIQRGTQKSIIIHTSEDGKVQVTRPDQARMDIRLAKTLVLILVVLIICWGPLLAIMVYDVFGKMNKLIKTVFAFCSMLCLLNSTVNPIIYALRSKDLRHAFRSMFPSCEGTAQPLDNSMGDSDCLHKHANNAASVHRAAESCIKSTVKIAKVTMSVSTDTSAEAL

[3] = target: T2, hCB1; experiment: hCB1 radioligand binding assay ([3H]-CP 55,940 displacement); conditions: hCB1 IC50 (CP displ, nM, HEK), HEK membranes
Description: as §1
Stable, HEK-293-derived cell lines that recombinantly express hCB1 or hCB2 were established. In brief, the clone hCB1 (CNR1L) or hCB2 (CNR2) was transfected into human embryonic kidney cells (HEK-293) using Lipofectamine 2000 (Gibco, Cat#11668-019) according to the manufacturer's protocol. Transfected clones were isolated by single colony purification and clones were screened for receptor expression using a whole cell, ^3H—CP 55,940 radioligand binding assay. HEK-293 stable cells were maintained in Dulbecco's modified Eagles medium (DMEM) containing 10% fetal bovine serum, 2 mM L-glutamine and 0.5 mg/mL G-418.
Membranes were isolated from transfected cells as follows. Monolayers of cultured cells were washed twice with phosphate-buffered saline (PBS). Cells were scraped into 20 mM HEPES, pH 7.4, 10 mM EDTA containing complete cocktail protease inhibitors (Roche, Catalog #11 697 498 001), and were homogenized by an electric-powered mechanical probe homogenizer (Omni GLH; probe G7-195S) for 40 seconds at 7000 rpm. Homogenates were centrifuged 10 minutes at 1000×g at 4° C. The supernatant was collected and was centrifuged for 1 hour at 40,000×g. The supernatant was then decanted and the resulting pellet was re-suspended in 20 mM HEPES, pH 7.4, 5 mM MgCl2, 1 mM EDTA, 10% sucrose with complete cocktail protease inhibitors. Protein concentration of membrane suspensions were measured by Bradford Protein Assay using bovine serum albumin as the standard (BioRad catalog #500-0006). Protein concentrations of membrane suspensions were adjusted with the final buffer in the range of 5 to 10 mg/mL and were stored at −80° C. until further use.
Radioligand binding assays were performed by incubating membranes (2-10 μg protein) prepared from HEK-293 cells expressing recombinant human cannabinoid receptors, CB 1 or CB2, at room temperature with 0.5 nM cannabinoid receptor agonist, [^3H]-CP 55,940 (Perkin Elmer, catalog #NET 1051) in 0.2 mL of binding buffer (50 mM Tris-HCl, pH 7.5, 5 mM MgCl2, 2.5 mM EDTA) and 0.1% fatty acid free bovine serum albumin (Sigma Cat. #A0821) for 90 minutes. A rapid filtration technique using Millipore FB filter plates (Catalog #MADVNOB) and filtration apparatus (Millipore system Catalog MAVM0960R) with vacuum aspiration was used to harvest and rinse labeled membranes (8 times with 0.2 mL of chilled binding buffer). The radioactivity bound to the filters was counted with 0.05 mL of liquid scintillant (UltraGold MV, PerkinElmer catalog #6013159) in a scintillation counter (Perkin Elmer Microbeta instrument). Nonspecific binding was determined in the presence of unlabeled 1 μM CP 55,940 (Sigma Aldrich, catalog #C1112). Binding data were analyzed using GraphPad Prism (GraphPad Software, Inc. San Diego, Calif.).

[4] = target: T1, hCB2; experiment: hCB2 radioligand binding assay ([3H]-CP 55,940 displacement); conditions: hCB2 IC50 (CP displ, nM, HEK), HEK membranes
Description: as §1, §2
A rapid filtration technique using Millipore FB filter plates (Catalog #MADVNOB) and filtration apparatus (Millipore system Catalog MAVM0960R) with vacuum aspiration was used to harvest and rinse labeled membranes (8 times with 0.2 mL of chilled binding buffer). […] Binding data were analyzed using GraphPad Prism (GraphPad Software, Inc. San Diego, Calif.).

[5] = target: T1, hCB2; experiment: hCB2 cAMP agonist assay (HEK-293 cells); assay type: cell-based
Description: as §1
cAMP assays were performed in HEK-293 cells stably expressing human CB 1 or CB2 receptors. […] Cells suspensions were centrifuged and the cells were washed once with PBS, were centrifuged again, and the cells were resuspended in HBSS (Hank's Balanced Salt Solution, Cellgro, Cat #21-022-CV) solution containing 10 mM HEPES and 0.1% fatty acid free BSA (Sigma, Cat #A0281). Cell suspensions were prepared at 1,500,000 cells per mL. Stock solutions of test substances (10 mM) in DMSO were diluted to 1 mM using 30% DMSO as diluent. Test substances of solutions (1 mM) were further diluted down to 3× of final assay concentrations in the above HBSS buffer containing 0.1% BSA in the presence of 90 uM forskolin (Sigma Cat#F6886). To perform the assay, 20 μL of cell suspension (1,500,000 cells/mL) were added to each well in 96 well plate and treated with 10 μL test substance solution diluted as described above. Cells and compounds were incubated at 37° C. for 30 minutes. Cells were lysed and cAMP concentration was measured using DiscoveRx-XS+ cAMP assay kit (DiscoveRx Corporation Ltd., Fremont, Calif., USA, Cat #90-0075-03), following the manufacturer's protocol. GraphPad Prism software was used to calculate EC50 values using sigmoidal dose response curve fitting. The maximal amount of cAMP produced by forskolin was defined as 100%.

[6] = GTPγS agonist, HEK membranes, read-out: hCB2 EC50 (GTPyS ag, nM, HEK)
[7] = cAMP agonist, HEK, 96-well, read-out: hCB1 EC50 (cAMP ag, nM, HEK (96-well))
[8] = cAMP agonist, HEK, 96-well, read-out: hCB2 EC50 (cAMP ag, nM, HEK (96-well))

T1 sequence (P34972 whole entry): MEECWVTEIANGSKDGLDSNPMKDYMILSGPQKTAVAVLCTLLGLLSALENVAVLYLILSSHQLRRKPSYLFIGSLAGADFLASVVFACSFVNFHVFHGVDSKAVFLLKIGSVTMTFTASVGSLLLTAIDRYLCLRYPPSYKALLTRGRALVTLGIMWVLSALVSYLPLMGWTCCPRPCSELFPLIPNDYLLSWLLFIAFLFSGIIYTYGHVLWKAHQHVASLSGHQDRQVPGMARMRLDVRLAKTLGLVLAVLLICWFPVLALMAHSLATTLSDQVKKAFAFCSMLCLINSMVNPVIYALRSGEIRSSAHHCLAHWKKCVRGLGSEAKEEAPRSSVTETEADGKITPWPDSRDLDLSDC

SMILES	EC50 [1, 6] [nM]	EC50 [2, 7] [nM]	IC50 [3] [nM]	IC50 [4] [nM]	EC50 [5, 8] [nM]	EC50 [1] [nM]	hCB1 EC50 (cAMP ag, nM, HEK (96-well)) ([2]; cAMP agonist, HEK, 96-well)	EC50 [5] [nM]	EC50 [2] [nM]	hCB1 EC50 (cAMP ag, nM HEK (24-well)) ([2]; cAMP agonist, HEK)
CCn1c(C(=O)c2c(C)n(CCN3CCOC3=O)c3ccccc23)cc2ccsc21 [Compound I-25]	< 100	1000 to 10000	> 10000	< 100	< 100	–	–	–	–	–
CCCn1c(C)c(C(=O)c2cc3scnc3n2CC)c2ccccc21 [Compound I-31]	–	–	1000 to 10000	100 to 1000	–	100 to 1000	NS (“Not Significant,” which means less than 30% agonist activity when compared to the positive control)	< 100	–	–
CCCn1cc(C(=O)c2cc3ccsc3n2C)c2ccccc21 [Compound I-32]	–	–	100 to 1000	< 100	–	< 100	–	< 100	100 to 1000	–
CCCn1c(C)c(C(=O)c2cc3ccsc3n2CC)c2cccc(OC)c21 [Compound I-36]	–	–	100 to 1000	< 100	–	< 100	–	< 100	100 to 1000	–
CCCn1c(C(=O)c2cn(C)c3ccccc23)cc2ccsc21 [Compound I-47]	–	100 to 1000	100 to 1000	< 100	–	100 to 1000	–	< 100	–	–
CCCn1c(C)c(C(=O)c2cc3cc(Cl)sc3n2CCC)c2ccccc21 [Compound I-49]	–	–	1000 to 10000	< 100	–	< 100	NS (“Not Significant,” which means less than 30% agonist activity when compared to the positive control)	< 100	–	–
CCCn1c(C(=O)c2c(C)n(C)c3ccccc23)cc2ccsc21 [Compound I-53]	100 to 1000	–	> 10000	100 to 1000	100 to 1000	–	NS (“Not Significant,” which means less than 30% agonist activity when compared to the positive control)	–	–	–
CCCCn1c(C)c(C(=O)c2cc3ccsc3n2CCC)c2ccccc21 [Compound I-58]	–	–	100 to 1000	< 100	–	< 100	–	< 100	< 100	–
CCCn1c(C)c(C(=O)c2cc3ccsc3n2CCC)c2cc(C)ccc21 [Compound I-69]	–	–	1000 to 10000	< 100	–	< 100	NS (“Not Significant,” which means less than 30% agonist activity when compared to the positive control)	< 100	–	–
CCCn1c(C)c(C(=O)c2cc3ccsc3n2CC2CCOCC2)c2ccccc21 [Compound I-72]	100 to 1000	–	100 to 1000	100 to 1000	< 100	–	NS (“Not Significant,” which means less than 30% agonist activity when compared to the positive control)	–	–	–
CCCn1c(C(=O)c2c(C)n(CCN3CCOCC3)c3ccccc23)cc2ccsc21 [Compound I-73]	–	–	100 to 1000	< 100	–	< 100	–	< 100	100 to 1000	–
CCCn1c(C)c(C(=O)c2cc3ccsc3[nH]2)c2ccccc21 [Compound I-74]	–	–	1000 to 10000	100 to 1000	–	100 to 1000	NS (“Not Significant,” which means less than 30% agonist activity when compared to the positive control)	100 to 1000	–	–
CCCn1c(C)c(C(=O)c2cc3cc(Cl)sc3[nH]2)c2c1CCCC2 [Compound I-76]	100 to 1000	–	> 10000	100 to 1000	100 to 1000	–	NS (“Not Significant,” which means less than 30% agonist activity when compared to the positive control)	–	–	–
CCCn1c(C)c(C(=O)c2cc3ccsc3n2CCC)c2c1CCCC2 [Compound I-77]	< 100	–	1000 to 10000	< 100	< 100	–	NS (“Not Significant,” which means less than 30% agonist activity when compared to the positive control)	–	–	NS (“Not Significant,” which means less than 30% agonist activity when compared to the positive control)
CCCn1c(C)c(C(=O)c2cc3ccsc3n2CCC)c2ccccc21 [Compound I-78]	–	–	1000 to 10000	< 100	–	< 100	NS (“Not Significant,” which means less than 30% agonist activity when compared to the positive control)	< 100	–	NS (“Not Significant,” which means less than 30% agonist activity when compared to the positive control)
CCCn1c(C)c(C(=O)c2cc3ccsc3n2CCC)c2c1CCCCC2 [Compound I-80]	< 100	1000 to 10000	100 to 1000	< 100	< 100	–	–	–	–	–
CCCn1c(C)c(C(=O)c2cc3sccc3[nH]2)c2ccccc21 [Compound I-81]	–	–	1000 to 10000	100 to 1000	–	100 to 1000	NS (“Not Significant,” which means less than 30% agonist activity when compared to the positive control)	100 to 1000	–	–
